US20110166112A1, “METHOD FOR STIMULATING PLATELET PRODUCTION” (Eisai, Inc., priority 2009, published 2011)

System: subjects with chronic ITP
Test: Combined 28-day and 6-month rollover studies of E5501: safety (TEAEs, serious TEAEs, thromboembolic events, neoplasms, liver toxicity, discontinuations)
Format: in vivo, human
Text: Primary Endpoint: The primary endpoint was to assess the safety and tolerability to E5501, including AEs and clinical laboratory parameters, over the 6 additional months of treatment.
In this way, safety data reflect each subject's complete duration of exposure to E5501 starting with lead-in the previous study and continuing into the current study.
Following Protocol Amendment 4, the current study contained a flexible dose regimen; therefore, this study was considered to have an open-label, uncontrolled, single-arm design. […] This was the method used to assess safety. • Grouping method B was based on both treatment received and day 28 platelet response to study drug in Study the previous study. This was the method used for the analysis of efficacy for the FAS and the SE population.
Overall Adverse Events. […] The primary focus is on summary statistics for the entire safety population and provides an overall safety profile for E5501. The summary statistics for each group, e.g., lower ⅓, middle ⅓ and upper ⅓ average daily dose levels, is secondary and provides further safety information across the 3 dose levels.

[1] = Lower ⅓ dose (2.5-<8.85 mg), N=22

O=C(Nc1nc(-c2cc(Cl)cs2)c(N2CCN(C3CCCCC3)CC2)s1)c1cnc(N2CCC(C(=O)O)CC2)c(Cl)c1 [E5501, 1-(3-chloro-5-{[4-(4-chlorothiophen-2-yl)-5-(4-cyclohexylpiperazin-1-yl)thiazol-2-yl]carbamoyl}pyridine-2-yl)piperidine-4-carboxylic acid]
tolerability and safety profile (6-month treatment period): well tolerated and demonstrated a favorable safety profile | Any Serious TEAE, n (%) of subjects (E5501 Total, N=64): 5 (7.8) n (%) | Serious TEAE Cerebrovascular accident, n (%) of subjects (E5501 Total, N=64): 1 (1.6) n (%) | Serious TEAE Chest pain, n (%) of subjects (E5501 Total, N=64): 1 (1.6) n (%) | Serious TEAE Diarrhoea, n (%) of subjects (E5501 Total, N=64): 1 (1.6) n (%) | Serious TEAE Haemorrhage intracranial, n (%) of subjects (E5501 Total, N=64): 1 (1.6) n (%) | Serious TEAE Lethargy, n (%) of subjects (E5501 Total, N=64): 1 (1.6) n (%) | Serious TEAE Mitral valve incompetence, n (%) of subjects (E5501 Total, N=64): 1 (1.6) n (%) | Serious TEAE Myocardial infarction, n (%) of subjects (E5501 Total, N=64): 1 (1.6) n (%) | Serious TEAE Nausea, n (%) of subjects (E5501 Total, N=64): 1 (1.6) n (%) | Serious TEAE Pelvic venous thrombosis, n (%) of subjects (E5501 Total, N=64): 1 (1.6) n (%) | Serious TEAE Platelet count decreased, n (%) of subjects (E5501 Total, N=64): 1 (1.6) n (%) | Serious TEAE Pneumonia, n (%) of subjects (E5501 Total, N=64): 1 (1.6) n (%) | Serious TEAE Pyrexia, n (%) of subjects (E5501 Total, N=64): 1 (1.6) n (%) | Serious TEAE Thrombocytopenia, n (%) of subjects (E5501 Total, N=64): 1 (1.6) n (%) | Serious TEAE Transient ischaemic attack, n (%) of subjects (E5501 Total, N=64): 1 (1.6) n (%) | Serious TEAE Vomiting, n (%) of subjects (E5501 Total, N=64): 2 (3.1) n (%) | Serious TEAE, SOC Blood and lymphatic system disorders, n (%) of subjects (E5501 Total, N=64): 1 (1.6) n (%) | Serious TEAE, SOC Cardiac disorders, n (%) of subjects (E5501 Total, N=64): 2 (3.1) n (%) | Serious TEAE, SOC Gastrointestinal disorders, n (%) of subjects (E5501 Total, N=64): 2 (3.1) n (%) | Serious TEAE, SOC General disorders and administration site conditions, n (%) of subjects (E5501 Total, N=64): 1 (1.6) n (%) | Serious TEAE, SOC Infections and infestations, n (%) of subjects (E5501 Total, N=64): 1 (1.6) n (%) | Serious TEAE, SOC Investigations, n (%) of subjects (E5501 Total, N=64): 1 (1.6) n (%) | Serious TEAE, SOC Nervous system disorders, n (%) of subjects (E5501 Total, N=64): 3 (4.7) n (%) | Serious TEAE, SOC Vascular disorders, n (%) of subjects (E5501 Total, N=64): 1 (1.6) n (%) | Discontinued 501-CL-004, PC increase to ≧500,000/mm^3 (Full Analysis Set, Responders in previous study): 0 n | Abdominal pain upper, n of subjects [1]: 0 | Any Serious TEAE, n (%) of subjects [1]: 1 (4.5) n (%) | Any TEAE, % of subjects [1]: (90.9) % | Any TEAE, n of subjects [1]: 20 | Arthralgia, % of subjects [1]: (4.5) % | Arthralgia, n of subjects [1]: 1 | Asthenia, % of subjects [1]: (13.6) % | Asthenia, n of subjects [1]: 3 | Back pain, % of subjects [1]: (4.5) % | Back pain, n of subjects [1]: 1 | Constipation, n of subjects [1]: 0 | Contusion, % of subjects [1]: (13.6) % | Contusion, n of subjects [1]: 3 | Cough, % of subjects [1]: (4.5) % | Cough, n of subjects [1]: 1 | Deaths, n of subjects [1]: 0 | Diarrhoea, % of subjects [1]: (13.6) % | Diarrhoea, n of subjects [1]: 3 | Dizziness, % of subjects [1]: (4.5) % | Dizziness, n of subjects [1]: 1 | Dose interruption due to TEAE, % of subjects [1]: (13.6) % | Dose interruption due to TEAE, n of subjects [1]: 3 | Dyspnoea, % of subjects [1]: (9.1) % | Dyspnoea, n of subjects [1]: 2 | Ecchymosis, n of subjects [1]: 0 | Epistaxis, % of subjects [1]: (18.2) % | Epistaxis, n of subjects [1]: 4 | Fatigue, % of subjects [1]: (36.4) % | Fatigue, n of subjects [1]: 8 | Gingival bleeding, % of subjects [1]: (4.5) % | Gingival bleeding, n of subjects [1]: 1 | Headache, % of subjects [1]: (18.2) % | Headache, n of subjects [1]: 4 | Insomnia, % of subjects [1]: (4.5) % | Insomnia, n of subjects [1]: 1 | Migraine, n of subjects [1]: 0 | Mouth haemorrhage, n of subjects [1]: 0 | Nausea, n of subjects [1]: 0 | Pain in extremity, % of subjects [1]: (9.1) % | Pain in extremity, n of subjects [1]: 2 | Petechiae, % of subjects [1]: (13.6) % | Petechiae, n of subjects [1]: 3 | Platelet count increased, % of subjects [1]: (9.1) % | Platelet count increased, n of subjects [1]: 2 | Serious TEAE Cerebrovascular accident, n (%) of subjects [1]: 0 n (%) | Serious TEAE Chest pain, n (%) of subjects [1]: 0 n (%) | Serious TEAE Diarrhoea, n (%) of subjects [1]: 0 n (%) | Serious TEAE Haemorrhage intracranial, n (%) of subjects [1]: 0 n (%) | Serious TEAE Lethargy, n (%) of subjects [1]: 0 n (%) | Serious TEAE Mitral valve incompetence, n (%) of subjects [1]: 0 n (%) | Serious TEAE Myocardial infarction, n (%) of subjects [1]: 0 n (%) | Serious TEAE Nausea, n (%) of subjects [1]: 0 n (%) | Serious TEAE Pelvic venous thrombosis, n (%) of subjects [1]: 0 n (%) | Serious TEAE Platelet count decreased, n (%) of subjects [1]: 0 n (%) | Serious TEAE Pneumonia, n (%) of subjects [1]: 0 n (%) | Serious TEAE Pyrexia, n (%) of subjects [1]: 0 n (%) | Serious TEAE Thrombocytopenia, n (%) of subjects [1]: 1 (4.5) n (%) | Serious TEAE Transient ischaemic attack, n (%) of subjects [1]: 0 n (%) | Serious TEAE Vomiting, n (%) of subjects [1]: 0 n (%) | Serious TEAE, % of subjects [1]: (4.5) % | Serious TEAE, SOC Blood and lymphatic system disorders, n (%) of subjects [1]: 1 (4.5) n (%) | Serious TEAE, SOC Cardiac disorders, n (%) of subjects [1]: 0 n (%) | Serious TEAE, SOC Gastrointestinal disorders, n (%) of subjects [1]: 0 n (%) | Serious TEAE, SOC General disorders and administration site conditions, n (%) of subjects [1]: 0 n (%) | Serious TEAE, SOC Infections and infestations, n (%) of subjects [1]: 0 n (%) | Serious TEAE, SOC Investigations, n (%) of subjects [1]: 0 n (%) | Serious TEAE, SOC Nervous system disorders, n (%) of subjects [1]: 0 n (%) | Serious TEAE, SOC Vascular disorders, n (%) of subjects [1]: 0 n (%)
